O=C1C=CC(=O)O1
solubility (mole fraction)
Settings	278.15 K	283.15 K	288.15 K	293.15 K	298.15 K	303.15 K	308.15 K	313.15 K	318.15 K	323.15 K
in DMF	0.0297	0.0372	0.0466	0.0584	0.0707	0.087	0.104	0.125	0.15	0.176
in acetic acid	0.0156	0.0216	0.0281	0.0369	0.0472	0.0605	0.0767	0.0962	0.119	0.146
in acetone	0.00999	0.0136	0.0191	0.0264	0.0336	0.0453	0.0599	0.0768	0.0977	0.124
in acetonitrile	0.012	0.0173	0.0232	0.0307	0.0408	0.0526	0.0682	0.0873	0.111	0.139
in ethyl acetate	0.00906	0.0125	0.017	0.0219	0.0303	0.0398	0.0518	0.0665	0.0857	0.107
in isopropanol	0.00617	0.00942	0.013	0.0178	0.0241	0.0321	0.043	0.0552	0.0712	0.0909
in methanol	0.0211	0.0282	0.0359	0.0465	0.0582	0.0719	0.0886	0.109	0.132	0.159
in n-butanol	0.00359	0.00539	0.00796	0.0116	0.0168	0.0236	0.033	0.0455	0.0618	0.0828

Source: BigSolDB 2.1
